This note sets out measurements from US10945771B2, “Azabicyclo[4.1.0]heptane allosteric modulators of the M4 muscarinic acetylcholine receptor” (Merck Sharp & Dohme Corp., priority 2017, dated 2021).

The assay has as its target T1, human M4 muscarinic acetylcholine receptor (Homo sapiens, UniProt P08173).
T1 construct: expressed in transfected cells; host or cells: CHO-K1
T1 sequence (P08173 1-479): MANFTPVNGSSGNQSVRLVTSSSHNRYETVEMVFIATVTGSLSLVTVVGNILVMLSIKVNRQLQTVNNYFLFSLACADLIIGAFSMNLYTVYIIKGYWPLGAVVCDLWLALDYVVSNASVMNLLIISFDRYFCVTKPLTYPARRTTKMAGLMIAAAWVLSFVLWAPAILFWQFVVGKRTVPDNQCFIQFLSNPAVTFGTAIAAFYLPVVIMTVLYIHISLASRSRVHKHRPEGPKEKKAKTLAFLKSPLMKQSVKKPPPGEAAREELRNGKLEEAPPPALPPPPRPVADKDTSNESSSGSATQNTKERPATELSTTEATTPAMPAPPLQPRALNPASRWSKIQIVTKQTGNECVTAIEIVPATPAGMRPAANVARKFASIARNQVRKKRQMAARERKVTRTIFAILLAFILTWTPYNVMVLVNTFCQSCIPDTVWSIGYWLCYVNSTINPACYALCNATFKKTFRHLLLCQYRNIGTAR
In words: human FLIPR-based M4 PAM assay (Ca2+ dye fluorescence, CHO-K1 cells with human M4 receptor and Gαqi5). It is filed as cell-based. Conditions: inflection point (IP) of dose response curve, FLIPR Tetra, acetylcholine at 20% of maximum response. As to the method:
In a typical experiment the M4 muscarinic acetylcholine receptor modulating activity of the compounds of the present invention was determined in accordance with the following experimental method. CHO-K1 cells stably transfected with human M4 receptor and chimeric G-protein Gαqi5 (Coward P, et al., Analytical Biochemistry, 270:242-248 (1999)) are thawed from liquid N2 storage, resuspended in growth medium, plated in black, clear bottom 384 well plates, and incubated 16-20 hours at 37° C., 5% CO2. On the day of assay, growth medium is removed, the cells are washed 2 times with wash buffer, and cells are incubated in dye loading buffer at 37° C., 5% CO2 for ˜1 hour. Following dye loading the cell plates are placed in a FLIPR Tetra instrument and while monitoring dye fluorescence (excitation […]), 10 uL of test substance at increasing concentrations is added, and fluorescence values are recorded for 4 min. Next, 10 uL of acetylcholine is added (final concentration calculated so as to achieve 20% of the maximum acetycholine response), and the fluorescence reading is continued for 3.5 min. In some cases, a third addition of acetylcholine (final concentration calculated to achieve 70% of the maximal acetylcholine response) is performed. The resulting dose response curves are fit to a 4 parameter logistic equation and the final result is determined as the inflection point (IP) of the curve
CHO-K1 cells stably transfected with human M4 receptor and chimeric G-protein Gαqi5 are thawed from liquid N2 storage, resuspended in growth medium, plated in black, clear bottom 384 well plates, and incubated 16-20 hours at 37° C., 5% CO2.
On the day of assay, growth medium is removed, the cells are washed 2 times with wash buffer, and cells are incubated in dye loading buffer at 37° C., 5% CO2 for ˜1 h. Following dye loading the cell plates are placed in a FLIPR Tetra instrument and while monitoring dye fluorescence ([…]), 10 uL of test substance at increasing concentrations is added, and fluorescence values are recorded for 4 min. Next, 10 uL of acetylcholine is added (final concentration calculated so as to achieve 20% of the maximum acetycholine response), and the fluorescence reading is continued for 3.5 min. In some cases, a third addition of acetylcholine (final concentration calculated to achieve 70% of the maximal acetylcholine response) is performed.
For orientation: EC50 means the concentration giving half of the maximal effect. A lower EC50 goes with a more potent agent. With `Cc1c(N2CCC(OCC3(C)CC3)C3CC32)nc2c(c1C)C(=O)N(CCC#N)C2` (single isomer, unassigned) [Example 15, 3-(3,4-dimethyl-2-(5-((1-methylcyclopropyl)methoxy)-2-azabicyclo[4.1.0]heptan-2-yl)-5-oxo-5,7-dihydro-6H-pyrrolo[3,4-b]pyridin-6-yl)propanenitrile], the response was half-maximal at 50 nM (EC50).

`Cc1c(N2CCC(OCC3(C)CC3)C3CC32)nc2c(c1C)C(=O)N1CCC(O)CC21` (single isomer, unassigned) [Example 21, 9-hydroxy-3,4-dimethyl-2-(5-((1-methylcyclopropyl)methoxy)-2-azabicyclo[4.1.0]heptan-2-yl)-8,9,10,10a-tetrahydropyrido[2,3-a]indolizin-5(7H)-one] came in with an EC50 of 157 nM.

`Cc1cc2c(nc1N1CCC(OCC3(C)CC3)C3CC31)CNC2=O` (single isomer, unassigned) [Example 4, 3-methyl-2-(5-((1-methylcyclopropyl)methoxy)-2-azabicyclo[4.1.0]heptan-2-yl)-6,7-dihydro-5H-pyrrolo[3,4-b]pyridin-5-one]: the EC50 was 1670 nM.

For `Cc1c(N2CCC(OCC3(C)CC3)C3CC32)nc2c(c1C)C(=O)N1CCOCC21` (stereo not drawn) [Example 26, 3,4-dimethyl-2-(5-((1-methylcyclopropyl)methoxy)-2-azabicyclo[4.1.0]heptan-2-yl)-7,8,10,10a-tetrahydro-5H-pyrido[2′,3′:3,4]pyrrolo[2,1-c][1,4]oxazin-5-one], the response was half-maximal at 153 nM (EC50).

Turning to `Cc1cc2c(nc1N1CCC(OCC3(C)CC3)C3CC31)CNC2=O` (single isomer, unassigned) [Example 3, 3-methyl-2-(5-((1-methylcyclopropyl)methoxy)-2-azabicyclo[4.1.0]heptan-2-yl)-6,7-dihydro-5H-pyrrolo[3,4-b]pyridin-5-one], the EC50 was 40 nM.

`Cc1c(N2CCC(OCC3(C)CC3)C3CC32)nc2c(c1C)C(=O)N1CCC(C)(O)CC21` (stereo not drawn) [Example 25, 9-hydroxy-3,4,9-trimethyl-2-(5-((1-methylcyclopropyl)methoxy)-2-azabicyclo[4.1.0]heptan-2-yl)-8,9,10,10a-tetrahydropyrido[2,3-a]indolizin-5(7H)-one]: the EC50 was 195 nM.

With `Cc1c(N2CCC(OCC3(C)CC3)C3CC32)nc2c(c1C)C(=O)N(C)C2CO` (single isomer, unassigned) [Example 6, 7-(hydroxymethyl)-3,4,6-trimethyl-2-(5-((1-methylcyclopropyl)methoxy)-2-azabicyclo[4.1.0]heptan-2-yl)-6,7-dihydro-5H-pyrrolo[3,4-b]pyridin-5-one], the EC50 was determined as 711 nM.

`Cc1cc2c(nc1N1CCC(Oc3ccc4c(c3)COC4)C3CC31)CNC2=O` (stereo not drawn) [Example 30, 2-(5-((1,3-dihydroisobenzofuran-5-yl)oxy)-2-azabicyclo[4.1.0]heptan-2-yl)-3-methyl-6,7-dihydro-5H-pyrrolo[3,4-b]pyridin-5-one] came in with a concentration for a half-maximal effect (EC50) of 727 nM.

The compound `Cc1c(N2CCC(OCC3(C)CC3)C3CC32)nc2c(c1C)C(=O)NC2` (single isomer, unassigned) [Example 1, 3,4-dimethyl-2-(5-((1-methylcyclopropyl)methoxy)-2-azabicyclo[4.1.0]heptan-2-yl)-6,7-dihydro-5H-pyrrolo[3,4-b]pyridin-5-one] returned an EC50 of 39 nM.

For the compound `Cc1c(N2CCC(Oc3ccc4c(c3)COCC4)C3CC32)nc2c(c1C)C(=O)NC2` (stereo not drawn) [Example 35, 2-(5-(isochroman-7-yloxy)-2-azabicyclo[4.1.0]heptan-2-yl)-3,4-dimethyl-6,7-dihydro-5H-pyrrolo[3,4-b]pyridin-5-one], the EC50 was 281 nM.

Consider `CCc1cc2c(nc1N1CCC(OCC3(C)CC3)C3CC31)C(CO)N(C)C2=O` (single isomer, unassigned) [Example 12, 3-ethyl-7-(hydroxymethyl)-6-methyl-2-(5-((1-methylcyclopropyl)methoxy)-2-azabicyclo[4.1.0]heptan-2-yl)-6,7-dihydro-5H-pyrrolo[3,4-b]pyridin-5-one], for which it took 506 nM to reach a half-maximal effect (EC50).

Consider `Cc1c(N2CCC(OCC3(C)CC3)C3CC32)nc2c(c1C)C(=O)N1CCC(O)CC21` (single isomer, unassigned) [Example 22, 9-hydroxy-3,4-dimethyl-2-(5-((1-methylcyclopropyl)methoxy)-2-azabicyclo[4.1.0]heptan-2-yl)-8,9,10,10a-tetrahydropyrido[2,3-a]indolizin-5(7H)-one], for which the EC50 was 116 nM. This EC50 is about 4.4-fold lower than that of the compound before.

As to `CCc1cc2c(nc1N1CCC(OCC3(C)CC3)C3CC31)C(CO)N(C)C2=O` (single isomer, unassigned) [Example 9, 3-ethyl-7-(hydroxymethyl)-6-methyl-2-(5-((1-methylcyclopropyl)methoxy)-2-azabicyclo[4.1.0]heptan-2-yl)-6,7-dihydro-5H-pyrrolo[3,4-b]pyridin-5-one], the EC50 turned out to be 8090 nM.

`CCc1cc2c(nc1N1CCC(OCC3(C)CC3)C3CC31)C(CO)N(C)C2=O` (single isomer, unassigned) [Example 11, 3-ethyl-7-(hydroxymethyl)-6-methyl-2-(5-((1-methylcyclopropyl)methoxy)-2-azabicyclo[4.1.0]heptan-2-yl)-6,7-dihydro-5H-pyrrolo[3,4-b]pyridin-5-one] gave an EC50 of 742 nM. Compared with the last compound, the EC50 is about 11-fold lower.

With `Cc1c(N2CCC(OCC3(C)CC3)C3CC32)nc2c(c1C)C(=O)NC2` (single isomer, unassigned) [Example 2, 3,4-dimethyl-2-(5-((1-methylcyclopropyl)methoxy)-2-azabicyclo[4.1.0]heptan-2-yl)-6,7-dihydro-5H-pyrrolo[3,4-b]pyridin-5-one], the concentration giving a half-maximal response (EC50) turned out to be 1320 nM. This EC50 is about 1.8-fold higher than that of the compound before.

`Cc1c(N2CCC(Oc3ccc4c(c3)COC4)C3CC32)nc2c(c1C)C(=O)N(C)C2` (stereo not drawn) [Example 37, 2-(5-((1,3-dihydroisobenzofuran-5-yl)oxy)-2-azabicyclo[4.1.0]heptan-2-yl)-3,4,6-trimethyl-6,7-dihydro-5H-pyrrolo[3,4-b]pyridin-5-one] yielded an EC50 of 143 nM. Against the preceding compound, the EC50 is about 9.2-fold lower.

As for `Cc1cc2c(nc1N1CCC(Oc3ccc4c(c3)COC4)C3CC31)CNC2=O` (stereo not drawn) [Example 29, 2-(5-((1,3-dihydroisobenzofuran-5-yl)oxy)-2-azabicyclo[4.1.0]heptan-2-yl)-3-methyl-6,7-dihydro-5H-pyrrolo[3,4-b]pyridin-5-one], the EC50 worked out at 43 nM.

Compound `Cc1c(N2CCC(OCC3(C)CC3)C3CC32)nc2c(c1C)C(=O)N1CCC(O)CC21` (single isomer, unassigned) [Example 24, 9-hydroxy-3,4-dimethyl-2-(5-((1-methylcyclopropyl)methoxy)-2-azabicyclo[4.1.0]heptan-2-yl)-8,9,10,10a-tetrahydropyrido[2,3-a]indolizin-5(7H)-one] displayed an EC50 of 2440 nM.

In turn, `Cc1c(N2CCC(Oc3ccc4c(c3)COC4)C3CC32)nc2c(c1C)C(=O)NC2` (stereo not drawn) [Example 27, 2-(5-((1,3-dihydroisobenzofuran-5-yl)oxy)-2-azabicyclo[4.1.0]heptan-2-yl)-3,4-dimethyl-6,7-dihydro-5H-pyrrolo[3,4-b]pyridin-5-one] had an EC50 of 166 nM.

`Cc1cc2c(nc1N1CCC(Oc3ccc4c(c3)COCC4)C3CC31)CNC2=O` (stereo not drawn) [Example 36, 2-(5-(isochroman-7-yloxy)-2-azabicyclo[4.1.0]heptan-2-yl)-3-methyl-6,7-dihydro-5H-pyrrolo[3,4-b]pyridin-5-one] had a concentration for a half-maximal effect (EC50) of 156 nM.

Compound `Cc1c(N2CCC(OCC3(C)CC3)C3CC32)nc2c(c1C)C(=O)N1CCC(O)CC21` (single isomer, unassigned) [Example 23, 9-hydroxy-3,4-dimethyl-2-(5-((1-methylcyclopropyl)methoxy)-2-azabicyclo[4.1.0]heptan-2-yl)-8,9,10,10a-tetrahydropyrido[2,3-a]indolizin-5(7H)-one] had an EC50 of 2350 nM.
